The text below walks through data of EP4360456A1, “PHYTOSANITARY FORMULATION” (Universidad de Almeria, priority 2021, dated 2022).

The assay concerns fungus F. oxysporum. In words: microbe, parasite or virus in culture. It counts as cell-based. The note with it: for inhibition at 2000 µg/mL / inhibition at 5000 µg/mL / inhibition at 7500 µg/mL / inhibition at 10000 µg/mL: Fusarium oxysporum. The method, then:
The % of inhibition is calculated with respect to the control based on the areas of growth of the fungus according to the following equation: % of inhibition with respect to FOM = 100−((AP)/(AC)*100) [formula] wherein: • AP: area of growth of the fungus in the target dish. • AC: Area of growth of the fungus in the control dish.

[1] abbreviates: Concentration 2 g/L, Table 4 concentration screening, read-out: Percentages of inhibition.
Setting [2] is: Concentration 5 g/L, Table 4 concentration screening, read-out: Percentages of inhibition.
[3] abbreviates: Concentration 7.5 g/L, Table 4 concentration screening, read-out: Percentages of inhibition.
Setting [4] is: Concentration 10 g/L, Table 4 concentration screening, read-out: Percentages of inhibition.
Where [5] appears, read: solution at 5 g/L, Table 3, read-out: % of inhibition.

SMILES strings stand for the structures. Read-outs that look alike come from different tables or passages of the source.

As for `C[C@H](N)C(=O)O` [Alanine, L-Alanine], the inhibition at 2000 µg/mL under setting [1] was determined as 9.24 ± 0.85%. Moreover, the inhibition at 5000 µg/mL reads like this: under setting [2], 9.48 ± 1.06%; under setting [5], 9.23 ± 0.71%. Also, the inhibition at 7500 µg/mL under setting [3] stood at 13.3 ± 1.01%. For the same molecule, the inhibition at 10000 µg/mL under setting [4] amounted to 14.4 ± 0.87%.

Regarding `N.O=CO` [Ammonium formate], the “% of inhibition” value (solution at 5 g/L, Table 3) was determined as 1.54 ± 0.15%.

Take `CCO` [Ethanol]: the inhibition at 5000 µg/mL (read-out: % of inhibition) was determined as 3.07 ± 0.45%.

Consider `OCC(O)CO` [Glycerol], for which the inhibition at 5000 µg/mL under setting [5] came to 1.85 ± 0.1%.

Regarding `N[C@@H](Cc1ccccc1)C(=O)O` [Phenylalanine, L-Phenylalanine], the inhibition at 2000 µg/mL under setting [1] was 17 ± 2.24%. In addition, the inhibition at 5000 µg/mL was 19.5 ± 1.85% under setting [2] and 16.1 ± 1.05% under setting [5]. Moreover, the inhibition at 7500 µg/mL under setting [3] is 19.2 ± 1.65%. Further, under setting [4], the inhibition at 10000 µg/mL was found to be 21.7 ± 1.74%.

For `CC(=O)O` [Sodium acetate, Anhydrous sodium acetate], the inhibition at 5000 µg/mL (read-out: % of inhibition) amounted to 1.54 ± 0.05%.

Consider `O=C[O-].[Na+]` [Sodium formate], for which the Percentages of inhibition reads like this: (Concentration 2 g/L, Table 4 concentration screening) 5.66 ± 0.41; (Concentration 5 g/L, Table 4 concentration screening) 12.33 ± 0.98; (Concentration 7.5 g/L, Table 4 concentration screening) 12.54 ± 1.54; (Concentration 10 g/L, Table 4 concentration screening) 12.14 ±0.52. The “% of inhibition” value (solution at 5 g/L, Table 3) is 13.38 ± 0.95%.
